Data as given in patent publication US10479784B2, “Substituted pyrazin-2-amines as inhibitors of ATR kinase” (Vertex Pharmaceuticals Incorporated, priority 2008, dated 2019).

These molecules were tested against full-length ATR (Homo sapiens (Human), UniProt Q13535) (assay: ATR Inhibition Assay (radioactive-phosphate incorporation)). Conditions: read-out: ATR Ki.
Type: biochemical
Method in brief: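 Full-length human ATR (5 nM) was assayed at 25 °C in 50 mM Tris/HCl pH 7.5, 10 mM MgCl2, 1 mM DTT, with 10 μM [γ-33P]ATP and 800 μM peptide, after 10-min compound preincubation. Reactions were stopped after 24 h, captured on phosphocellulose and counted; Ki(app) came from non-linear regression of initial rates.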

Sequence of full-length ATR (Q13535 whole entry): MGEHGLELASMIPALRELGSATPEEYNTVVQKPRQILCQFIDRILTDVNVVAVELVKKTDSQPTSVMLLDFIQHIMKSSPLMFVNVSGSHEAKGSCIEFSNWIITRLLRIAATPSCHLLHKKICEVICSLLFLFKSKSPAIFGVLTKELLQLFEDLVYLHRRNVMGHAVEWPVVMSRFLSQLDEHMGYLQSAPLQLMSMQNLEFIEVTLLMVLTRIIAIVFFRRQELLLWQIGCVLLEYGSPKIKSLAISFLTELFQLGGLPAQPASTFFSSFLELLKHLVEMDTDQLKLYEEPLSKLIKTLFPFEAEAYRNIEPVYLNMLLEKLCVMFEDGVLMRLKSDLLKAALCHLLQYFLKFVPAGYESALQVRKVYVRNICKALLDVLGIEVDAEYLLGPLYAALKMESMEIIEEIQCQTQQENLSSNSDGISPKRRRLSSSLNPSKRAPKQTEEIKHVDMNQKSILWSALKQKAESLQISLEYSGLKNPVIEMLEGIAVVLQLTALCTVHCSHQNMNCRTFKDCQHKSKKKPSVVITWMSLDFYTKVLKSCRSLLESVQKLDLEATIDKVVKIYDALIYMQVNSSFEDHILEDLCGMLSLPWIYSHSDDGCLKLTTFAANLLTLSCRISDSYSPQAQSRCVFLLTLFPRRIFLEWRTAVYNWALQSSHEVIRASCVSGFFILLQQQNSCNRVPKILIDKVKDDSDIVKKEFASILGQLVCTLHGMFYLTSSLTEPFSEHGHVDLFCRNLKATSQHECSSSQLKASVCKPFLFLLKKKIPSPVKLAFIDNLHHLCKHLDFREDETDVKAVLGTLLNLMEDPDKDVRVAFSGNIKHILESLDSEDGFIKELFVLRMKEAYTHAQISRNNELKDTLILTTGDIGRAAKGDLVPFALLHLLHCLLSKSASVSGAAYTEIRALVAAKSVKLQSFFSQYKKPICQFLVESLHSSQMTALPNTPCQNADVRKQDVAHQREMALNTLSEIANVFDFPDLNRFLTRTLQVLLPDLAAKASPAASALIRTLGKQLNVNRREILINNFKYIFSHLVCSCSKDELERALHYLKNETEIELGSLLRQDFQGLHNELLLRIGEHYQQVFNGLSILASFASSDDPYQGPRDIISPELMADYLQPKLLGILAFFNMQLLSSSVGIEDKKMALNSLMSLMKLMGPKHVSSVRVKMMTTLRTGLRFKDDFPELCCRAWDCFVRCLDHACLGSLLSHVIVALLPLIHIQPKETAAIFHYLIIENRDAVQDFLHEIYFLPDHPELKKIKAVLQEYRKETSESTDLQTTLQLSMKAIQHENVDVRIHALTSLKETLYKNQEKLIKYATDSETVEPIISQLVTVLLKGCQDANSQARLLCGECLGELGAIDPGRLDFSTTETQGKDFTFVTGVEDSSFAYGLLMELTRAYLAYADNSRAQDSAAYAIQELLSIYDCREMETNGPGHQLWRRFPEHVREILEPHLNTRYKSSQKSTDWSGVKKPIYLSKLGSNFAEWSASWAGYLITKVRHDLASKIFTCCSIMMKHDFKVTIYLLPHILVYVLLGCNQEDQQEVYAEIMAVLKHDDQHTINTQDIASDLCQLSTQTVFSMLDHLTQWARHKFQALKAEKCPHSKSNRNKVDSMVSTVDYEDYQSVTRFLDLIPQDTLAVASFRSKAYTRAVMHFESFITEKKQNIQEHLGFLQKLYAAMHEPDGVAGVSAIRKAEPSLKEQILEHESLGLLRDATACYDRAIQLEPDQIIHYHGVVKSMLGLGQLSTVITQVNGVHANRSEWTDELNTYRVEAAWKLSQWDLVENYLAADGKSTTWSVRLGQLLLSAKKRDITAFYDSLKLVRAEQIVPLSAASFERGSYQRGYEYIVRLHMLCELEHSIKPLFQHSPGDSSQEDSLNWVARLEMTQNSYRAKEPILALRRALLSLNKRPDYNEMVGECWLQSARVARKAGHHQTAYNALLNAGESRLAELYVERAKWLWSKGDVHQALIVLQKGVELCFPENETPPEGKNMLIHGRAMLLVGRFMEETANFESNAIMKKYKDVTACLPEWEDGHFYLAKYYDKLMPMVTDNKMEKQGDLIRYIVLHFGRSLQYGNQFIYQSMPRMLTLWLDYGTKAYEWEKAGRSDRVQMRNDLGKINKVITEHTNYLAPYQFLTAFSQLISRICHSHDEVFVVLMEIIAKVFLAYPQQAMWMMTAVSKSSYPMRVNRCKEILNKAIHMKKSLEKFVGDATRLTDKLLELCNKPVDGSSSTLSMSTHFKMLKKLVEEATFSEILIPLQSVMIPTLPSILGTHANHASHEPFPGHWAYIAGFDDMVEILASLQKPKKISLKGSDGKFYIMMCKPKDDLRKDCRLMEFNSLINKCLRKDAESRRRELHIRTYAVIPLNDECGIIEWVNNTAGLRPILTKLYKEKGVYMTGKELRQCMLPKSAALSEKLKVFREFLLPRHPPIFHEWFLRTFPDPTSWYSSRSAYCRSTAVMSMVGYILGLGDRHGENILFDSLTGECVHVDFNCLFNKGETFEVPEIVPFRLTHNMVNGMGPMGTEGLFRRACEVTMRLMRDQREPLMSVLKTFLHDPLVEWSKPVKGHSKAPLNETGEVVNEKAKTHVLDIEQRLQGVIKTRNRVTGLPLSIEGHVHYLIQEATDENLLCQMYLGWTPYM

Ki	Structure (SMILES)
≤ 10 nM	CS(=O)(=O)c1ccc(-c2cnc(N)c(C(=O)Nc3nc4ccccc4[nH]3)n2)cc1 [Compound V-11]
≤ 10 nM	CS(=O)(=O)c1ccc(-c2cnc(N)c(C(=O)Nc3ccc4cc[nH]c4n3)n2)cc1 [Compound V-12]
100 to 5000 nM	CS(=O)(=O)c1ccc(-c2cnc(N)c(C(=O)Nc3n[nH]c4ccccc34)n2)cc1 [Compound V-13]
100 to 5000 nM	Nc1ncc(-c2cccnc2)nc1C(=O)Nc1cccn2ncnc12 [Compound V-14]
100 to 5000 nM	Nc1ncc(-c2cccnc2)nc1C(=O)Nc1cccc2cc[nH]c12 [Compound V-15]
10 to 100 nM	Nc1ncc(-c2cccnc2)nc1C(=O)Nc1ccc2cc[nH]c2c1 [Compound V-16]
10 to 100 nM	Nc1ncc(-c2cccnc2)nc1C(=O)Nc1ccc2[nH]ccc2c1 [Compound V-17]
100 to 5000 nM	CS(=O)(=O)c1ccc(-c2cnc(N)c(C(=O)Nc3n[nH]c4ccccc34)n2)cc1 [Compound V-18]
100 to 5000 nM	Cn1c(NC(=O)c2nc(-c3ccc(C(=O)N4CCCNCC4)cc3)cnc2N)nc2ccccc21 [Compound V-25]
100 to 5000 nM	Nc1ncc(-c2ccc(C(=O)N3CCCNCC3)cc2)nc1C(=O)Nc1cc2ccccc2[nH]1 [Compound V-26]
10 to 100 nM	Nc1ncc(-c2ccc(C(=O)N3CCCNCC3)cc2)nc1C(=O)Nc1ccc2c(c1)NNC2 [Compound V-28]
≤ 10 nM	Nc1ncc(-c2ccc(C(=O)N3CCCNCC3)cc2)nc1-c1nnc(-c2ccccc2)o1 [IA-1]
≤ 10 nM	CN(C)C1CCN(C(=O)c2ccc(-c3cnc(N)c(-c4nnc(-c5ccccc5)o4)n3)cc2F)CC1 [IA-4]
≤ 10 nM	CN(C)[C@@H]1CCN(C(=O)c2ccc(-c3cnc(N)c(-c4nnc(-c5ccccc5)o4)n3)cc2F)C1 [IA-5]
≤ 10 nM	Nc1ncc(-c2ccc(C(=O)N3CCCNCC3)c(F)c2)nc1-c1nnc(-c2ccccc2)o1 [IA-6]
10 to 100 nM	Nc1ncc(-c2ccc(C(=O)N3CCNCC3)c(F)c2)nc1-c1nnc(-c2ccccc2)o1 [IA-7]
≤ 10 nM	CN1CCN(C(=O)c2ccc(-c3cnc(N)c(-c4nnc(-c5ccccc5)o4)n3)cc2)CC1 [IA-9]
≤ 10 nM	CN(C)[C@@H]1CCN(C(=O)c2ccc(-c3cnc(N)c(-c4nnc(-c5ccccc5)o4)n3)cc2)C1 [IA-10]
10 to 100 nM	CCOC(=O)N1CCN(C(=O)c2ccc(-c3cnc(N)c(-c4nnc(-c5ccccc5)o4)n3)cc2)CC1 [IA-11]
10 to 100 nM	Nc1ncc(-c2ccc(C(=O)N3CCNCC3)cc2)nc1-c1nnc(-c2ccccc2)o1 [IA-12]
10 to 100 nM	Nc1ncc(-c2ccc(C(=O)N3CCOCC3)cc2)nc1-c1nnc(-c2ccccc2)o1 [IA-13]
≤ 10 nM	COCCN(C)C(=O)c1ccc(-c2cnc(N)c(-c3nnc(-c4ccccc4)o3)n2)cc1 [IA-14]
≤ 10 nM	Nc1ncc(-c2ccc(C(=O)N3CCCOCC3)cc2)nc1-c1nnc(-c2ccccc2)o1 [IA-15]
≤ 10 nM	Nc1ncc(-c2ccc(C(=O)N3CCNC(C(F)(F)F)C3)cc2)nc1-c1nnc(-c2ccccc2)o1 (stereo not drawn) [IA-16]

Ki	Structure (SMILES)
10 to 100 nM	CC1CN(C(=O)c2ccc(-c3cnc(N)c(-c4nnc(-c5ccccc5)o4)n3)cc2)CCN1 (stereo not drawn) [IA-17]
≤ 10 nM	CCC1CN(C(=O)c2ccc(-c3cnc(N)c(-c4nnc(-c5ccccc5)o4)n3)cc2)CCN1 (stereo not drawn) [IA-18]
≤ 10 nM	N#Cc1cc(C(=O)N2CCCNCC2)ccc1-c1cnc(N)c(-c2nnc(-c3ccccc3)o2)n1 [IA-20]
10 to 100 nM	CN(C)C1CCN(C(=O)c2c(F)cc(-c3cnc(N)c(-c4nnc(-c5ccccc5)o4)n3)cc2F)CC1 [IA-21]
10 to 100 nM	CN(C)C1CCN(C(=O)c2ccc(-c3cnc(N)c(-c4nnc(-c5ccccc5)o4)n3)c(C(F)(F)F)c2)CC1 [IA-22]
≤ 10 nM	CN(C)C(=O)c1ccc(-c2cnc(N)c(-c3nnc(-c4ccccc4)o3)n2)cc1 [IA-23, 4-(5-amino-6-(5-phenyl-1,3,4-oxadiazol-2-yl)pyrazin-2-yl)-N,N-dimethylbenzamide]
10 to 100 nM	Nc1ncc(-c2ccc(S(=O)(=O)N3CCNCC3)cc2)nc1-c1nnc(-c2ccccc2)o1 [IA-24]
10 to 100 nM	CN(C)[C@@H]1CCN(S(=O)(=O)c2ccc(-c3cnc(N)c(-c4nnc(-c5ccccc5)o4)n3)cc2)C1 [IA-25]
≤ 10 nM	Nc1ncc(-c2ccc(S(=O)(=O)NCCO)cc2)nc1-c1nnc(-c2ccccc2)o1 [IA-26]
≤ 10 nM	Nc1ncc(-c2ccc(C(=O)N3CCCN(C=O)CC3)cc2)nc1-c1nnc(-c2ccccc2)o1 [IA-29]
≤ 10 nM	CN(C)C(=O)c1ccc(-c2cnc(N)c(-c3nnc(-c4ccccc4F)o3)n2)cc1 [IA-30]
10 to 100 nM	CN(C)C(=O)c1ccc(-c2cnc(N)c(-c3nnc(Nc4ccccc4)o3)n2)cc1 [IA-32]
100 to 5000 nM	CNc1nnc(-c2nc(-c3ccc(C(=O)N(C)C)cc3)cnc2N)o1 [IA-33]
≤ 10 nM	N#Cc1cnccc1-c1cnc(N)c(-c2nnc(-c3ccccc3)o2)n1 [IA-35]
10 to 100 nM	CN(C)C(=O)c1ccc(-c2cnc(N)c(-c3nnc(-c4ccc(F)cc4)o3)n2)cc1 [IA-36]
10 to 100 nM	Nc1ncc(-c2cnc(C(=O)N3CCCNCC3)nc2)nc1-c1nnc(-c2ccccc2)o1 [IA-37]
10 to 100 nM	Nc1ncc(-c2cc(F)c(C(=O)N3CCCNCC3)c(F)c2)nc1-c1nnc(-c2ccccc2)o1 [IA-38]
≤ 10 nM	Nc1ncc(-c2ccc(C(=O)N3CCCNCC3)cc2C(F)(F)F)nc1-c1nnc(-c2ccccc2)o1 [IA-39]
10 to 100 nM	CN(C)C(=O)c1ccc(-c2cnc(N)c(-c3nnc(-c4cccc(F)c4)o3)n2)cc1 [IA-40, 4-(5-amino-6-(5-(3-fluorophenyl)-1,3,4-oxadiazol-2-yl)pyrazin-2-yl)-N,N-dimethylbenzamide]
10 to 100 nM	CN(C)C(=O)c1ccc(-c2cnc(N)c(-c3nnc(-c4cccnc4)o3)n2)cc1 [IA-41]
10 to 100 nM	CN(C)C(=O)c1ccc(-c2cnc(N)c(-c3nnc(Nc4ccc(Cl)cc4)o3)n2)cc1 [IA-42]
10 to 100 nM	CN(C)C(=O)c1ccc(-c2cnc(N)c(-c3nnc(Nc4cccc(Cl)c4)o3)n2)cc1 [IA-43]
10 to 100 nM	CN(C)C(=O)c1ccc(-c2cnc(N)c(-c3nnc(Nc4cccnc4)o3)n2)cc1 [IA-44]
100 to 5000 nM	CN(C)C(=O)c1ccc(-c2cnc(N)c(-c3nnc(N4CCOCC4)o3)n2)cc1 [IA-45]

Ki	Structure (SMILES)
10 to 100 nM	CN(C)C(=O)c1ccc(-c2cnc(N)c(-c3nnc(-c4ccccc4)o3)n2)c(Cl)c1 [IA-46]
≤ 10 nM	Nc1ncc(-c2ccc(C(=O)N3CCCNCC3)nc2)nc1-c1nnc(-c2ccccc2)o1 [IA-47]
10 to 100 nM	Nc1ncc(-c2ccccc2)nc1-c1nnc(-c2ccccc2)o1 [IA-49]
10 to 100 nM	N#Cc1ccccc1-c1cnc(N)c(-c2nnc(-c3ccccc3)o2)n1 [IA-50]
10 to 100 nM	CN(C)C(=O)c1ccc(-c2cnc(N)c(-c3nnc(-c4ccccn4)o3)n2)cc1 [IA-51]
≤ 10 nM	CN(C)C(=O)c1ccc(-c2cnc(N)c(-c3nnc(-c4cccs4)o3)n2)cc1 [IA-52]
10 to 100 nM	CN(C)C(=O)c1ccc(-c2cnc(N)c(-c3nnc(-c4ccc[nH]c4=O)o3)n2)cc1 [IA-53]
100 to 5000 nM	CN(C)C(=O)c1ccc(-c2cnc(N)c(-c3nnc(NC4CCNCC4)o3)n2)cc1 [IA-54]
100 to 5000 nM	CN(C)C(=O)c1ccc(-c2cnc(N)c(-c3nnc(NCc4ccccc4)o3)n2)cc1 [IA-55, 4-(5-amino-6-(5-(benzylamino)-1,3,4-oxadiazol-2-yl)pyrazin-2-yl)-N,N-dimethylbenzamide]
100 to 5000 nM	CC(C)c1ccccc1-c1cnc(N)c(-c2nnc(-c3ccccc3)o2)n1 [IA-56]
100 to 5000 nM	CCc1ccccc1-c1cnc(N)c(-c2nnc(-c3ccccc3)o2)n1 [IA-57]
10 to 100 nM	Nc1ccccc1-c1cnc(N)c(-c2nnc(-c3ccccc3)o2)n1 [IA-58]
10 to 100 nM	Nc1ncc(-c2cccc3[nH]ccc23)nc1-c1nnc(-c2ccccc2)o1 [IA-59]
≤ 10 nM	Nc1ncc(-c2ccncc2)nc1-c1nnc(-c2ccccc2)o1 [IA-60]
10 to 100 nM	Nc1ncc(-c2ccccc2O)nc1-c1nnc(-c2ccccc2)o1 [IA-61]
10 to 100 nM	Nc1ncc(-c2ccc3ncccc3c2)nc1-c1nnc(-c2ccccc2)o1 [IA-63]
10 to 100 nM	Nc1ncc(-c2cccnc2)nc1-c1nnc(-c2ccccc2)o1 [IA-64]
100 to 5000 nM	COc1ccccc1-c1cnc(N)c(-c2nnc(-c3ccccc3)o2)n1 [IA-65]
10 to 100 nM	CC(=O)Nc1cccc(-c2cnc(N)c(-c3nnc(-c4ccccc4)o3)n2)c1 [IA-66]
10 to 100 nM	CN(C)C(=O)c1ccc(-c2cnc(N)c(-c3nnc(-c4ccncc4)o3)n2)cc1 [IA-67]
≤ 10 nM	Nc1ncc(-c2ccc(C(=O)N3CCCNCC3)cc2)nc1-c1nnc(-c2ccccc2)s1 [IA-68, (4-(5-amino-6-(5-phenyl-1,3,4-thiadiazol-2-yl)pyrazin-2-yl)phenyl)(1,4-diazepan-1-yl)methanone]
10 to 100 nM	CN(C)C(=O)c1ccc(-c2cnc(N)c(-c3nnc(-c4cccc(CCO)c4)o3)n2)cc1 [IA-69, 4-[5-amino-6-[5-[3-(2-hydroxyethyl)phenyl]-1,3,4-oxadiazol-2-yl]pyrazin-2-yl]-N,N-dimethyl-benzamide]
≤ 10 nM	CC(C)S(=O)(=O)c1ccc(-c2cnc(N)c(-c3nnc(-c4ccc(C(=N)N)cc4)o3)n2)cc1 [IA-70, 4-[5-[3-amino-6-(4-isopropylsulfonylphenyl)pyrazin-2-yl]-1,3,4-oxadiazol-2-yl]benzamidine]

Structure (SMILES)	Ki
CC(C)(C)OC(=O)N1CCCN(C(=O)c2ccc(-c3cnc(N)c(-c4nnc(-c5ccccc5)o4)n3)c(C#N)c2)CC1 [IA-19]	≤ 10 nM
CC(C)(C)OC(=O)N1CCCN(C(=O)c2ccc(-c3cnc(N)c(-c4nnc(-c5ccccc5)o4)n3)cc2)CC1 [IA-28]	≤ 10 nM
CC(C)(C)CC(=O)N1CCCN(C(=O)c2ccc(-c3cnc(N)c(-c4nnc(-c5ccccc5)o4)n3)cc2)CC1 [IA-31]	≤ 10 nM
COC(=O)N1CCCN(C(=O)c2ccc(-c3cnc(N)c(-c4nnc(-c5ccccc5)o4)n3)cc2)CC1 [IA-34]	≤ 10 nM
